Test results taken from patent US6743583B2, “Identification of drugs and drug targets by detection of the stress response” (priority 2000, dated 2004).

How the values were obtained:
[1] = system: his3 heterozygous strain; conditions: cited from earlier work
[2] = system: alg7 heterozygote; test: HSP26 promoter GFP-uv reporter stress response, fluorimeter; format: cell-based, Saccharomyces cerevisiae; parameters: key: F = fluorescent activity from hsp reporter construct, indicating stress response is induced; NF = no fluorescence, no induction of stress response; conditions: predicted expectations
Source text: (§1) Stress response gene reporter constructs are generally constructed as follows: approximately 500 bp to approximately 1,000 bp or more region upstream of the first start codon of the stress gene of interest (the region encompassing the stress response gene promoter) is fused to the coding region of a reporter polypeptide (e.g., GFP-uv in pRS316 (Sikorski and Hieter (1989) Genetics 122(1):19-27, Clontech). In a specific exemplary construct, approximately 500 bp of the sequence upstream of the hsp26 gene were ligated to the coding region of GFP-uv in pRS316 to provide for expression of the GFP-uv reporter polypeptide under control of the HSP26 promoter.
(§2) 80% of all heterozygous deletion strains of Saccharomyces cerevisiae have been constructed. Heterozygous deletion strains were generated using homologous gene transplacement (Rothstein, R. (1991) Meth. Enzymol. 194:281-301) in wild-type diploid strains using standard methods. The resulting heterozygotes carry a deletion in one of the two copies of a given gene.
(§3) The above-described HSP26 construct and a control construct (containing no upstream HSP26 promoter sequence) is transformed into 4 strains: a wildtype strain and strains heterozygous for ALG7, HIS3, and TUB2. The his3 heterozygous strain is sensitive to 3-amino triazole; the alg7 heterozygous strain is sensitive to tunicamycin; and the tub2 heterozygous strain is sensitive to benomyl. The expression of hsp26 activity is then monitored using a fluorimeter. Comparisons (with predicted expectations) are as follows: […]

[3] = system: his3 heterozygote; test: as above; format: cell-based, Saccharomyces cerevisiae; parameters: key: F = fluorescent activity from hsp reporter construct, indicating stress response is induced; NF = no fluorescence, no induction of stress response; conditions: predicted expectations
Source text: as §1, §2, §3

[4] = system: tub2 heterozygote; test: as above; format: cell-based, Saccharomyces cerevisiae; parameters: key: F = fluorescent activity from hsp reporter construct, indicating stress response is induced; NF = no fluorescence, no induction of stress response; conditions: predicted expectations
Source text: as §1, §2, §3

[5] = system: Wildtype strain; test: as above; format: cell-based, Saccharomyces cerevisiae; parameters: key: F = fluorescent activity from hsp reporter construct, indicating stress response is induced; NF = no fluorescence, no induction of stress response; conditions: predicted expectations
Source text: as §1, §3

[6] = system: yeast stress response genes; conditions: MMS 0.1%; published data; cited from earlier work

For `Nc1nc[nH]n1` [3-amino triazole, 3-amino-triazole], the “sensitivity of strain to drug” value [1] is given as “sensitive”, the “fluorescent activity from hsp26 reporter construct” value (“fluorescent activity” for short) [2] is given as “F” and the “fluorescent activity” value [3] is given as “NF”. For the same molecule, the “fluorescent activity” value [4] was “F” and the “fluorescent activity” value [5] was “F”.

In the case of `COS(C)(=O)=O` [MMS], the “fold induction of AMS1 (YGL156W)” value [6] is listed as 3.3 fold, the “fold induction of DDR48 (YMR173w)” value [6] is listed as 6 fold and the “fold induction of GFA1 (YKL104C)” value [6] is listed as 3.3 fold. For the same molecule, the “fold induction of GSC2 (YGR032W)” value [6] was 2.5 fold, the “fold induction of HSP10 (YOR020C)” value [6] was 1 fold and the “fold induction of HSP12 (YFL014W)” value [6] was 4.2 fold. For the same molecule, the “fold induction of HSP26 (YBR072W)” value [6] was 2.6 fold, the “fold induction of HSP30 (YCR021C)” value [6] was 2 fold and the “fold induction of HSP42 (YDR171w)” value [6] was 1.5 fold. For the same molecule, the “fold induction of HSP60 (YLR259C)” value [6] was 1 fold, the “fold induction of HSP78 (YDR258C)” value [6] was 2.8 fold and the “fold induction of HSP82 (YPL240C)” value [6] was 1.8 fold. The “fold induction of HSP104 (YLL026W)” value [6] was 2 fold, the “fold induction of HXT5 (YHR096C)” value [6] was 1.9 fold and the “fold induction of ISF1 (YMR081C)” value [6] was 2.9 fold. For the same molecule, the “fold induction of PAI3 (YMR174C)” value [6] was 5.1 fold, the “fold induction of PRY1 (YJL079C)” value [6] was 1 fold and the “fold induction of PUT1 (YLR142W)” value [6] was 1 fold. For the same molecule, the “fold induction of SNZ3 (YFL059W)” value [6] was 2.3 fold, the “fold induction of SSA1 (YAL005C)” value [6] was 6.4 fold and the “fold induction of TSI1 (YLR178C)” value [6] was 5.7 fold. For the same molecule, the “fold induction of UBC5 (YDR059c)” value [6] was 5.5 fold, the “fold induction of YBL049W” value [6] was 1 fold and the “fold induction of YDR018C” value [6] was 1 fold. The “fold induction of YFL030W” value [6] was 5 fold, the “fold induction of YFR026C” value [6] was 2.2 fold and the “fold induction of YGR043C” value [6] was 3.5 fold. For the same molecule, the “fold induction of YIL042C” value [6] was 1.4 fold, the “fold induction of YIL117C” value [6] was 2.3 fold and the “fold induction of YJL144W” value [6] was 1.6 fold. For the same molecule, the “fold induction of YKL107W” value [6] was 1.7 fold, the “fold induction of YLR053C” value [6] was 1 fold and the “fold induction of YLR080W” value [6] was 5.6 fold. For the same molecule, the “fold induction of YLR194C” value [6] was 1 fold, the “fold induction of YMR040W” value [6] was 1.5 fold and the “fold induction of YMR090W” value [6] was 8 fold. For the same molecule, the “fold induction of YMR107W” value [6] was 1 fold, the “fold induction of YNL194C” value [6] was 2.9 fold and the “fold induction of YPS3 (YLR121C)” value [6] was 1 fold.
